# Tests used:
# endogenous mouse MAGL = biological target: T1, endogenous mouse MAGL (Mus musculus, UniProt O35678); assay: Competitive ABPP, mouse brain membrane proteome: MAGL band; assay type: biochemical; conditions: FP-TAMRA 250 nM
# T1 construct: on endogenous MAGL, we applied an ABPP assay with mouse brain membrane proteome; from tissue; host or cells: mouse brain membrane fraction
# T1 sequence (O35678 1-303): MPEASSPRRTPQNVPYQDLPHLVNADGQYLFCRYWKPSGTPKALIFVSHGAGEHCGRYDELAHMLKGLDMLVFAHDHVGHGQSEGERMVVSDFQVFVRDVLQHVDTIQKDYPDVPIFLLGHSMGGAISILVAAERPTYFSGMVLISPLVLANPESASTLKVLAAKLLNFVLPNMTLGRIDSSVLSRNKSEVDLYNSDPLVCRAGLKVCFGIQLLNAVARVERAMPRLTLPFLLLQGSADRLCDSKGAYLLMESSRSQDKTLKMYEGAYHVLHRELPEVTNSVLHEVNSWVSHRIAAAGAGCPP
# Procedure: Mouse brains were isolated according to guidelines approved by the ethical committee of Western China Hospital, Sichuan University (No. 2021765A). Mouse brains were dounce homogenized lysis buffer (20 mM HEPES, 2 mM DTT, 1 mM MgCl2, 25 U/mL benzonase) and incubated on ice for 15 min, followed by low-speed spin (2,500 g, 3 min, 4 C) to remove debris. The supernatant was subjected to ultracentrifugation (100,000 g, 45 min, 4°C) to generate the cytosolic fraction in the supernatant, as well as the membrane fraction as a pellet. After removal of the soluble supernatant, the pellet was resuspended in storage buffer (20 mM HEPES, 2 mM DTT) by pipetting. Total protein concentrations in membrane and soluble fractions were determined using a Qubit protein assay (Invitrogen). The obtained samples were stored at −80°C until further use.
# The competitive ABPP selectivity assay was performed according to the previously reported protocol. Briefly, mouse brain membrane proteome (2 mg/ml, 20 µl) was preincubated for 30 min with 0.5 µl of DMSO (vehicle) or inhibitor (100 μM, finial concentration). Subsequently, the proteome-inhibitor complex was treated with the activity-based probe FP-TAMRA (250 nM, final concentration) for 20 min. […] The gels were then scanned and analyzed using a ChemiDoc MP system (Cy3 settings, BioRad). All the samples were measured and duplicated.
# [1] = test system: endogenous MAGL in cancer cells; assay: Competitive ABPP in cancer cell lysates: MAGL band; assay type: biochemical; conditions: 100 µM, FP-TAMRA 500 nM
# Procedure: To identify the potential off-targets of the compounds with anti-cancer activities, ABPP was applied. Cancer cells were seeded in the dishes and were washed with PBS, scraped, centrifugated (3,000 × g, 3 min) and pellets snap frozen in liquid in nitrogen. For ABPP experiments, the cell pellets were lysed by probe sonication (3 × 10 bursts) in PBS, followed by the determination of protein concentration of the intact cell lysate by Qubit assay. […] The reactions were then quenched by 10 µl sample buffer (×4). The obtained samples were directly loaded and resolved on SDS-PAGE gel (10% acrylamide). The gel-based ABPP results were then scanned and analyzed using a ChemiDoc MP system (Cy3 settings, BioRad).
smiles,measurement,setting,value
"C[C@H]1COC2=C1C(=O)C(=O)c1c2ccc2c1CCCC2(C)C [compound 23, Cryptotanshinone]",inhibition at 100 µM,endogenous mouse MAGL,50 to 60%
same,"labeling of endogenous MAGL, A549","[1]; 30 min, A549 cell lysate",completely reduced the labeling
same,"labeling of endogenous MAGL, B16-F10","[1]; 30 min, B16-F10 cell lysate",completely reduced the labeling
same,"labeling of endogenous MAGL, H1975","[1]; 30 min, H1975 cell lysate",completely reduced the labeling
same,"labeling of endogenous MAGL, HCC827","[1]; 30 min, HCC827 cell lysate",completely reduced the labeling
same,"labeling of endogenous MAGL, HT-29","[1]; 30 min, HT-29 cell lysate",completely reduced the labeling
same,"labeling of endogenous MAGL, Hela","[1]; 30 min, Hela cell lysate",completely reduced the labeling
same,"labeling of endogenous MAGL, OVCAR-3","[1]; 30 min, OVCAR-3 cell lysate",completely reduced the labeling
same,inhibition of endogenous MAGL in the tested cancer cell lines,[1]; cancer cell lysates,nearly complete inhibition

# Source: PMC9465256, “Discovering monoacylglycerol lipase inhibitors by a combination of fluorogenic substrate assay and activity-based protein profiling” (Frontiers in Pharmacology, 2022)
